Measured values published in the supplement of paper PMC12317010.

Assay: collision cross section in nitrogen (drift tube, single-field); higher = larger gas-phase ion size
[1] = ion type: [M-H], ion source: ESI, ion mode: Negative
[2] = ion type: [M+], ion source: APCI, ion mode: Positive
[3] = ion type: [M+Na], ion source: ESI, ion mode: Positive
[4] = ion type: [M+H], ion source: ESI, ion mode: Positive
[5] = ion type: [M+H], ion source: APCI, ion mode: Positive
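Further: chemical standards at 10 µM analysed by drift tube IMS-QTOF MS in about 3.95 torr nitrogen, mean of duplicate injections differing ≤1%, mass error below 10 ppm.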

| SMILES | collision cross section in nitrogen [1] [Å²] | collision cross section in nitrogen [3] [Å²] | collision cross section in nitrogen [4] [Å²] | further results |
| --- | --- | --- | --- | --- |
| CC(C)(C)c1n[nH]c(=S)n(N)c1=O | 142.1 |  |  |  |
| Cc1cc(NC(=O)C(=O)O)cc(C)c1Oc1ccc(O)c2c1CCC2 | 199.1 |  |  |  |
| CC1COCc2cc3c(cc21)C(C)(C)C(C)C3(C)C (centres undefined) |  |  |  | collision cross section in nitrogen [2]: 163.2 Å² |
| CCCCOC(=O)COC(=O)c1ccccc1C(=O)OCCCC |  | 193.5 |  |  |
| CN[C@H]1CC[C@@H](c2ccc(Cl)c(Cl)c2)c2ccc(S(N)(=O)=O)cc21 | 197.2 |  |  |  |
| COc1cc(S(=O)(=O)O)c(C)cc1N=Nc1c(O)ccc2cc(S(=O)(=O)O)ccc12 | 214.8 |  |  |  |
| Cc1c(C2(c3cc(Br)c(O)c(Br)c3C)c3ccccc3OS2(=O)=O)cc(Br)c(O)c1Br | 217.4 |  |  |  |
| Cc1cc(Cl)ccc1OCC(=O)O | 146.1 |  |  |  |
| N#Cc1ccc(N(CC(N)=O)CC(F)(F)F)cc1C(F)(F)F | 163.7 |  |  |  |
| NC(=O)N1C(=O)C(C(=O)c2cc(Cl)cs2)c2cc(F)c(Cl)cc21 (centres undefined) | 173.7 |  |  |  |
| Nc1c(S(=O)(=O)O)cc(Br)c2c1C(=O)c1ccccc1C2=O | 169.4 |  |  |  |
| O=C(O)C1=NN(c2ccc(S(=O)(=O)O)cc2)C(=O)C1 | 162.5 |  |  |  |
| O=[N+]([O-])c1ccc(C=Cc2ccc([N+](=O)[O-])cc2S(=O)(=O)O)c(S(=O)(=O)O)c1 | 182.4 |  |  |  |
| CCCCCCCCCCCCCC(=O)OCC(O)CO (racemic) [(+/-)-2,3-Dihydroxypropyl tetradecanoate] |  | 183.7 |  |  |
| COC(=O)N(C(=O)N1COC2(C(=O)OC)Cc3cc(Cl)ccc3C2=N1)c1ccc(OC(F)(F)F)cc1 (racemic) [(+/-)-Indoxacarb] |  | 220.6 | 205.6 |  |
| O=C1CC(c2ccc(O)cc2)Oc2cc(O)cc(O)c21 (racemic) [(+/-)-Naringenin] | 163.9 |  |  |  |
| Oc1ccc(C2COc3cc(O)ccc3C2)cc1 (racemic) [(R,S)-Equol] | 159.6 |  |  |  |
| CC(=O)Oc1c(C)c(C)c2c(c1C)CC[C@@](C)(CCC[C@H](C)CCC[C@H](C)CCCC(C)C)O2 (racemic) [dl-alpha-Tocopheryl acetate] |  | 222 | 226.4 |  |
| O=C1CCCCCN1SSN1CCCCCC1=O [1,1'-Disulfanediyldiazepan-2-one] |  | 168.7 |  |  |
| CC1=Nc2ccc3ccccc3c2C1(C)C [1,1,2-Trimethyl-1H-benzo[e]indole] |  |  | 146.7 | collision cross section in nitrogen [5]: 145.8 Å² |
| CCCCN(CCCC)C(=O)N(CCCC)CCCC [1,1,3,3-Tetrabutylurea] |  | 194 | 177.9 | collision cross section in nitrogen [5]: 177.3 Å² |
| Oc1ccc(C2(c3ccc(O)c(C4CCCCC4)c3)CCCCC2)cc1C1CCCCC1 [1,1-Bis(3-cyclohexyl-4-hydroxyphenyl)cyclohexane] | 217.2 | 218.4 |  |  |

| SMILES | collision cross section in nitrogen [1] [Å²] | collision cross section in nitrogen [3] [Å²] | collision cross section in nitrogen [4] [Å²] | further results |
| --- | --- | --- | --- | --- |
| C[N+]1(C)CCCCC1 [1,1-Dimethylpiperidinium chloride] |  |  |  | collision cross section in nitrogen (ion source: ESI, ion mode: Positive, ion type: [M]+ (permanent cation)): 121.2 Å² |
| CC(O)CN(CCN(CC(C)O)CC(C)O)CC(C)O (centres undefined) [1,1′,1′′,1′′′-(Ethylenedinitrilo)tetrakis(2-propanol)] | 168.6 | 168.6 | 166.8 | collision cross section in nitrogen [5]: 166.8 Å² |
| CN1C(C)(C)CC(O)CC1(C)C [1,2,2,6,6-Pentamethylpiperidin-4-ol] |  |  | 136.9 | collision cross section in nitrogen [5]: 136 Å² |
| O=C1NC(=O)C2CC=CCC12 (centres undefined) [1,2,3,6-Tetrahydrophthalimide] | 132.6 |  |  |  |
| O=c1nn[nH]c2ccccc12 [1,2,3-Benzotriazin-4(1H)-one] | 126.4 |  |  |  |
| c1ccc2[nH]nnc2c1 [1,2,3-Benzotriazole] | 118.9 |  | 122.2 | collision cross section in nitrogen [5]: 120.7 Å² |
| Clc1cccc(Cl)c1Cl [1,2,3-Trichlorobenzene] |  | 144.8 |  |  |
| O=C(O)c1ccc(C(=O)O)c(C(=O)O)c1 [1,2,4-Benzenetricarboxylic acid] | 136.9 |  |  |  |
| O=c1[nH]sc2ccccc12 [1,2-Benzisothiazolin-3-one] | 127.2 |  |  |  |
| CC1=C(C#N)C(=O)N(C)C(=O)C1 [1,2-Dihydro-6-hydroxy-1,4-dimethyl-2-oxonicotinonitrile] | 131.2 | 144.6 | 133.8 |  |
| Cc1ncc([N+](=O)[O-])n1C [1,2-Dimethyl-5-nitroimidazole] |  |  | 128 |  |
| Oc1cc(O)cc(O)c1 [1,3,5-Trihydroxybenzene dihydrate] | 121.6 |  |  |  |
| O=C(O)c1cccc(C(=O)O)c1 [1,3-Benzenedicarboxylic acid] | 133.2 |  |  |  |
| O=C1CCCC(=O)C1 [1,3-Cyclohexanedione] | 121.3 |  | 122.6 |  |
| CN1C(=CC=O)C(C)(C)c2ccccc21 [1,3-Dihydro-1,3,3-trimethyl-2H-indol-2-ylidene acetaldehyde] |  |  | 145.1 | collision cross section in nitrogen [5]: 144.6 Å²; collision cross section in nitrogen [2]: 143.2 Å² |
| Cc1cc(C2(c3ccc(O)c(C)c3)C(=O)Nc3ccccc32)ccc1O [1,3-Dihydro-3,3-bis(4-hydroxy-m-tolyl)-2H-indol-2-one] | 190.8 | 196.6 | 185.4 |  |
| N=C1NC(=N)c2cc3ccccc3cc21 [1,3-Diiminobenz(f)isoindoline] |  |  | 140.1 |  |
| O=C(NCO)NCO [1,3-Dimethylolurea] |  | 151.7 |  |  |
| O=[N+]([O-])c1cc([N+](=O)[O-])c2ccccc2c1 [1,3-Dinitronaphthalene] | 138.9 |  |  |  |
| O=C(CC(=O)c1ccccc1)c1ccccc1 [1,3-Diphenyl-1,3-propanedione] | 154.4 | 165.9 |  |  |
| N=C(Nc1ccccc1)Nc1ccccc1 [1,3-Diphenylguanidine] |  |  | 150.8 | collision cross section in nitrogen [5]: 150.7 Å² |
